Reference: paper PMC11615764, “Discovery of Ketal‐Ester Ionizable Lipid Nanoparticle with Reduced Hepatotoxicity, Enhanced Spleen Tropism for mRNA Vaccine Delivery” (Advanced Science, 2024)
“Also recorded” adds a separate entry of the source. Read-outs that look alike come from different tables or passages of the source. Blank lines part the entries; values can stand above or below the compound they belong to.

Experiments:
[1] = Encapsulation efficiency of LNPs, RiboGreen accessibility assay; type: physicochemical; settings: LNP: ionizable lipid/DSPC/Chol/DMG‐PEG2000 50:10:38.5:1.5, N/P 6
Experimental: (§1) Particle size and polydispersity index (PDI) were determined by dynamic light scattering (DLS), apparent pKa was assessed using 6‐(p‐toluidino)‐2‐naphthalenesulfonic acid (TNS) dye‐binding assay, while encapsulation efficiency was evaluated by a RiboGreen accessibility assay.
(§2) The sizes of the LNP formulations were assessed by DLS (Malvern Zetasizer Pro). Quant‐it RiboGreen assay (ThermoFisher Scientific, Cat# R11490) was used to measure the encapsulation efficiency of the LNP formulations. Briefly, LNPs treated by 1% (v/v) Triton X‐100 (Adamas‐beta) to disrupt LNP structure and release mRNA and untreated LNPs were diluted to a concentration below 2 µg mRNA/mL, then reacted with an equal volume of RiboGreen assay solution at a 200‐fold dilution. Standard curves were generated within the range between 0.0 to 2.0 µg mRNA/mL using a series of free mRNA solutions with or without 1% v/v Triton X‐100. The concentrations of free mRNA and total mRNA in the formulation were determined using bulk fluorescent reading (excitation: 490 nm, emission: 535 nm) of the sample against the corresponding standard curves. The amount of RNA loaded into the LNPs (internal RNA) was calculated by subtracting the values obtained in 1 x TE (external RNA) from 1 x TE + 1% Triton X‐100 (total RNA). Subsequently, the encapsulation efficiency was calculated as the percentage obtained by dividing the amount of internal RNA by the total RNA amount.

[2] = LNP particle size and PDI by dynamic light scattering; type: physicochemical; settings: LNP: ionizable lipid/DSPC/Chol/DMG‐PEG2000 50:10:38.5:1.5, N/P 6; DLS
Experimental: as §1, §2

[3] = LNP apparent pKa, TNS dye‐binding assay; type: physicochemical; settings: apparent pKa of the LNP
Experimental: Following the formulation methods of SpikeVax and Onpattro, all KEL LNPs were formulated with standard helper lipids: DSPC, Chol, and DMG‐PEG2000 at a molar ratio of Ionizable lipid/DSPC/Chol/DMG‐PEG2000 50:10:38.5:1.5, and at an ionizable lipid to RNA charge ratio (N/P) of 6.^[ [25] ^] Particle size and polydispersity index (PDI) were determined by dynamic light scattering (DLS), apparent pKa was assessed using 6‐(p‐toluidino)‐2‐naphthalenesulfonic acid (TNS) dye‐binding assay, while encapsulation efficiency was evaluated by a RiboGreen accessibility assay.
A series of buffers with pH values varying by 1 between 3.0 and 12.0 were prepared by titrating a solution containing 10 mM citrate, 10 mM phosphate, 10 mM borate, and 150 mM NaCl with 1.0 M HCl and 0.5 M NaOH. LNPs were diluted to 75 µM ionizable lipid, TNS to 6 µM in these buffers. Fluorescence intensity was determined using a Thermo Scientific 3020 spectrophotometer (325 nm excitation/435 nm emission). With the resulting fluorescence values, a sigmoidal plot of fluorescence versus buffer pH was created. The […] inflection point of this curve was the apparent pKa of the LNP formulation.

293T cells [4] = settings: 50 µM
[5] = mouse, in vivo, iv, 0.5 mg/kg
Balb/c mice = experiment: In vivo firefly luciferase mRNA expression, whole‐body bioluminescence; design: species or system mouse; settings: mLuci LNP, female Balb/c mice; for delivery potency (whole‐body luciferase), IV and IM: IV 1 mg/kg and IM 0.25 mg/kg; for whole‐body luciferase activity after IM administration: IM 0.25 mg/kg, compared with DLin‐MC3‐DMA LNP; for whole‐body luciferase activity after IV administration: IV 1 mg/kg
Experimental: Subsequently, the formulated KEL LNPs were evaluated for their in vivo delivery efficiency (Figure 1C). Wild‐type female Balb/c mice were administered with a single dose of LNPs containing firefly luciferase mRNA (mLuci) via IV or intramuscular (IM) injection (Figure 2A,B), followed by whole‐body luciferase activity assay. A control group receiving DLin‐MC3‐DMA‐based LNP was included in each experiment to facilitate comparisons across experiments.
Balb/c mice were injected intramuscularly (0.25 mg k^−1g) or intravenously (1 mg k^−1g) with LNPs. At 6 or 24 hrs post‐administration, mice were injected intraperitoneally with 150 mg k^−1g of D‐luciferin monosodium salt (ThermoFisher) and imaged using the in vivo imaging system (IVIS Lumina LT Series III) 10 min post intraperitoneally. 1 × PBS (IM: 50 µL; IV: 200 µL) was injected as a negative control.

293T cells [6] = experiment: Cell Counting Kit‐8 cytotoxicity assay; settings: lipid alone at 50 µM, CCK8, 48 h
human liver microsomes = experiment: Microsomal stability of ionizable lipids, human; settings: 0.5 mg protein/mL, NADPH and UDPGA
[7] = Biodegradability of LNPs after IV injection, ionizable lipid in plasma by LC‐MS/MS; settings: mLuci LNP IV 0.5 mg/Kg, mice

Encapsulation efficiency (%) [1]: 97.6% | PDI [2]: 0.03 | Size (nm) [2]: 71.68 nm | pKa [3]: 6.17
SMILES: CCCCCCCCCCCOC(=O)CCCCCC1(CCCCCCCC(=O)OC(CCCCCCCC)CCCCCCCC)OCC(CCN(CC)C(C)C)O1 (stereo not drawn) [KEL8]
whole‐body luciferase activity after IV administration (Balb/c mice): lower potency than those with pKa of 6.7‐7.0

Encapsulation efficiency (%) [1]: 98.2% | PDI [2]: 0.05 | Size (nm) [2]: 125.0 nm | pKa [3]: 7.03
SMILES: CCCCCCCCCCCNC(=O)CCCCCC1(CCCCCCCC(=O)NC(CCCCCCCC)CCCCCCCC)OCC(CCN(C)C)O1 (stereo not drawn) [KEL9]
delivery potency (whole‐body luciferase), IV and IM (Balb/c mice): significantly reduced delivery potency; also recorded: lower delivery efficiency for both IV and IM administration

Encapsulation efficiency (%) [1]: 96.5% | PDI [2]: 0.10 | Size (nm) [2]: 69.23 nm | pKa [3]: 6.09
SMILES: CCCCCCCCC(CCCCCCCC)OC(=O)CCCCCCCC1(CCCCCCCC(=O)OC(CCCCCCCC)CCCCCCCC)OCC(CCN(C)C)O1 (stereo not drawn) [KEL10]
delivery potency (whole‐body luciferase), IV and IM (Balb/c mice): potency diminished compared to KEL2 | whole‐body luciferase activity after IV administration (Balb/c mice): lower potency than those with pKa of 6.7‐7.0

Encapsulation efficiency (%) [1]: 93.3% | PDI [2]: 0.34 | Size (nm) [2]: 110.3 nm | pKa [3]: 6.88
SMILES: CCCCCCCCCCCOC(=O)CCCCCC1(CCCCCC(=O)OCCCCCCCCCCC)OCC(CCN(C)C)O1 (stereo not drawn) [KEL11]
delivery potency (whole‐body luciferase), IV and IM (Balb/c mice): further decrease in potency compared to KEL10

Encapsulation efficiency (%) [1]: 94.9% | PDI [2]: 0.04 | Size (nm) [2]: 89.54 nm | pKa [3]: 6.93
SMILES: CCCCCCCCCCC(=O)OCCCCCCC1(CCCCCCCC(=O)OC(CCCCCCCC)CCCCCCCC)OCC(CCN(C)C)O1 (stereo not drawn) [KEL12]
whole‐body luciferase activity after IM administration (Balb/c mice): significantly higher luciferase activity than DLin‐MC3‐DMA LNP | delivery potency (whole‐body luciferase), IV and IM (Balb/c mice): higher potency than LNPs with either double branched tails (KEL10) or double linear tails (KEL11) | whole‐body luciferase activity after IV administration (Balb/c mice): significantly higher luciferase activity than DLin‐MC3‐DMA LNP by IV

Encapsulation efficiency (%) [1]: 91.0% | PDI [2]: 0.09 | Size (nm) [2]: 99.68 nm | pKa [3]: 6.44
SMILES: CCCCCCCCCCC(=O)OCCCCCCC1(CCCCCCCCOC(=O)C(CCCCCCCC)CCCCCCCC)OCC(CCN(C)C)O1 (stereo not drawn) [KEL13]
whole‐body luciferase activity after IM administration (Balb/c mice): significantly higher luciferase activity than DLin‐MC3‐DMA LNP | delivery potency (whole‐body luciferase), IV and IM (Balb/c mice): higher potency than LNPs with either double branched tails (KEL10) or double linear tails (KEL11) | whole‐body luciferase activity after IV administration (Balb/c mice; 1 mg/kg): lower potency than those with pKa of 6.7‐7.0

The remaining lines, values behind:

SMILES: CCCCC/C=C\C/C=C\CCCCCCCCC(CCCCCCCC/C=C\C/C=C\CCCCC)OC(=O)CCCN(C)C [DLin‐MC3‐DMA, reference compound]
Encapsulation efficiency (%) [1]: 96.7% | PDI [2]: 0.15 | Size (nm) [2]: 72.70 nm | pKa [3]: 6.33 | cell viability (293T cells [4]): over 80% | decline of ionizable lipid level in plasma during the first 6 hrs [5]: reduced faster than (4S)‐KEL12

SMILES: CCCCCCCCCCCOC(=O)CCCCCC1(CCCCCCCC(=O)OC(CCCCCCCC)CCCCCCCC)OCC(CN(C)C)O1 (stereo not drawn) [KEL1]
Encapsulation efficiency (%) [1]: 95.0% | PDI [2]: 0.12 | Size (nm) [2]: 76.72 nm | pKa [3]: 5.72 | delivery potency (whole‐body luciferase), IV and IM (Balb/c mice): lower delivery efficiency for both IV and IM administration

SMILES: CCCCCCCCCCCOC(=O)CCCCCC1(CCCCCCCC(=O)OC(CCCCCCCC)CCCCCCCC)OCC(CCN(C)C)O1 (stereo not drawn) [KEL2]
Encapsulation efficiency (%) [1]: 92.3% | PDI [2]: 0.03 | Size (nm) [2]: 70.27 nm | pKa [3]: 6.88 | whole‐body luciferase activity after IM administration (Balb/c mice): significantly higher levels of luciferase activity than the DLin‐MC3‐DMA LNP | delivery potency (whole‐body luciferase), IV and IM (Balb/c mice): higher potency than KEL1 and KEL4; also recorded: higher potency than LNPs with either double branched tails (KEL10) or double linear tails (KEL11)

SMILES: CCCCCCCCCCCOC(=O)CCCCCC1(CCCCCCCC(=O)OC(CCCCCCCC)CCCCCCCC)OCC(CCCN(C)C)O1 (stereo not drawn) [KEL3]
Encapsulation efficiency (%) [1]: 89.3% | PDI [2]: 0.16 | Size (nm) [2]: 98.15 nm | pKa [3]: 6.86 | whole‐body luciferase activity after IM administration (Balb/c mice): significantly higher levels of luciferase activity than the DLin‐MC3‐DMA LNP | delivery potency (whole‐body luciferase), IV and IM (Balb/c mice): higher potency than KEL1 and KEL4

SMILES: CCCCCCCCCCCOC(=O)CCCCCC1(CCCCCCCC(=O)OC(CCCCCCCC)CCCCCCCC)OCC(CCCCN(C)C)O1 (stereo not drawn) [KEL4]
Encapsulation efficiency (%) [1]: 91.0% | PDI [2]: 0.16 | Size (nm) [2]: 118.1 nm | pKa [3]: 7.40 | delivery potency (whole‐body luciferase), IV and IM (Balb/c mice): considerable potency

SMILES: CCCCCCCCCCCOC(=O)CCCCCC1(CCCCCCCC(=O)OC(CCCCCCCC)CCCCCCCC)OCC(CCN(C)CC)O1 (stereo not drawn) [KEL5]
Encapsulation efficiency (%) [1]: 96.5% | PDI [2]: 0.07 | Size (nm) [2]: 78.44 nm | pKa [3]: 6.86

SMILES: CCCCCCCCCCCOC(=O)CCCCCC1(CCCCCCCC(=O)OC(CCCCCCCC)CCCCCCCC)OCC(CCN(CC)CC)O1 (stereo not drawn) [KEL6]
Encapsulation efficiency (%) [1]: 97.5% | PDI [2]: 0.06 | Size (nm) [2]: 80.34 nm | pKa [3]: 6.89

SMILES: CCCCCCCCCCCOC(=O)CCCCCC1(CCCCCCCC(=O)OC(CCCCCCCC)CCCCCCCC)OCC(CCN(C)CCC)O1 (stereo not drawn) [KEL7]
Encapsulation efficiency (%) [1]: 97.2% | PDI [2]: 0.10 | Size (nm) [2]: 61.73 nm | pKa [3]: 5.91 | delivery potency (whole‐body luciferase), IV and IM (Balb/c mice): lower delivery efficiency for both IV and IM administration

SMILES: CCCCCCCCCCCOC(=O)CCCCCN(CCO)CCCCCCCC(=O)OC(CCCCCCCC)CCCCCCCC [SM‐102]
cell viability (293T cells [6]): over 80% | remaining after 120 minutes (human liver microsomes): about 80% | decline of ionizable lipid level in plasma during the first 6 hrs [7]: reduced faster than (4S)‐KEL12 | ionizable lipid level in plasma after 12 hrs [7]: < 10 ng/mL | ionizable lipid level in plasma after 24 hrs [7]: undetectable
